Data on three molecules can be found in PMC4685510, “A Cell Biologist’s Field Guide to Aurora Kinase Inhibitors” (Frontiers in Oncology, 2015).

Structures are written as SMILES.

What all share (experiment): biochemical
Format in all cases: biochemical

Assay [1] concerns the target T1, 363 human kinases (including Aurora A/B/C) (Homo sapiens, UniProt Q12866).
T1 sequence (Q12866 21-999): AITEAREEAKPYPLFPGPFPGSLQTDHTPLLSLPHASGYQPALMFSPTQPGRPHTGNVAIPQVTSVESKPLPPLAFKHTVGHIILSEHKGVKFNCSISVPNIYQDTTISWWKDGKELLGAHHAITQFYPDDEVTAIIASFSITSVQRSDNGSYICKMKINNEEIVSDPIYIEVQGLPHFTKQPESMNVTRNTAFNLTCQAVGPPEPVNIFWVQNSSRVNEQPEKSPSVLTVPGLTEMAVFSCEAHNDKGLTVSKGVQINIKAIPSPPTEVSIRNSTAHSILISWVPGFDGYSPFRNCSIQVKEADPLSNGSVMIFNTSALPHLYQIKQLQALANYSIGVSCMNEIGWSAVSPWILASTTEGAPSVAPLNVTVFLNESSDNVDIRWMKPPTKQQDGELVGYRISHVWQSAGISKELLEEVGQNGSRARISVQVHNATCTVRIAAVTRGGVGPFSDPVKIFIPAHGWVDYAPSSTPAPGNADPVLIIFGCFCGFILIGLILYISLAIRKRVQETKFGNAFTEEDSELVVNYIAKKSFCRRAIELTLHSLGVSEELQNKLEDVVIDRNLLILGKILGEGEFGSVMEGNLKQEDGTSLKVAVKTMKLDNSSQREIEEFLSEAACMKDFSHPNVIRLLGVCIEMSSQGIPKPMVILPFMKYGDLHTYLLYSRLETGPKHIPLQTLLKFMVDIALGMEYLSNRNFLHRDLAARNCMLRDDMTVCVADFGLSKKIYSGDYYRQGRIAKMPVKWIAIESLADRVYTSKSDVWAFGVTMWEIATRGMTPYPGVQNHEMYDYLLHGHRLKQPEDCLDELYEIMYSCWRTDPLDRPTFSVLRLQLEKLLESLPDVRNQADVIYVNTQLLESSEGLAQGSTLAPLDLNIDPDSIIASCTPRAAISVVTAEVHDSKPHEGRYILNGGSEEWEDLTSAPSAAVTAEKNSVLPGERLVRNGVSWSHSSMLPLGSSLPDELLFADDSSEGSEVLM
The note with it: c-MER, [ATP] 30 µM; for remaining activity at 0.5 µM / remaining activity at 0.1 µM: read-out: % Enzyme Activity (relative to DMSO controls); for remaining activity at 0.1 µM: 100 nM.
Text: (§1) However, the Aurora A/B selectivity ratios derived from our in vitro and in vivo data can be compared to prioritize inhibitors.

Assay [2] addresses T2, 363 human kinases (including Aurora A/B/C) (Homo sapiens, UniProt P52564).
T2 sequence (P52564 1-334): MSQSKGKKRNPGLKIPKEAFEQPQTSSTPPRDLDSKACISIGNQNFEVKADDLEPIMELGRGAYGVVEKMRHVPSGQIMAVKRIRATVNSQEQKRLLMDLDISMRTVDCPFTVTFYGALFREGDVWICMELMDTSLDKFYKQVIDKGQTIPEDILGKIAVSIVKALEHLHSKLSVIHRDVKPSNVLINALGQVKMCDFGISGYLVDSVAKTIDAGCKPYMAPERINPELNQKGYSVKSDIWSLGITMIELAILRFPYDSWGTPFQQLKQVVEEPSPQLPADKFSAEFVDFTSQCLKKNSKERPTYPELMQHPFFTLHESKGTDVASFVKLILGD
The note with it: MKK6; for remaining activity at 0.5 µM / remaining activity at 0.1 µM: read-out: % Enzyme Activity (relative to DMSO controls); for remaining activity at 0.1 µM: 100 nM.
Text: as §1

Assay [3] concerns the target T3, 363 human kinases (including Aurora A/B/C) (Homo sapiens, UniProt Q9BZL6).
T3 sequence (Q9BZL6 1-878): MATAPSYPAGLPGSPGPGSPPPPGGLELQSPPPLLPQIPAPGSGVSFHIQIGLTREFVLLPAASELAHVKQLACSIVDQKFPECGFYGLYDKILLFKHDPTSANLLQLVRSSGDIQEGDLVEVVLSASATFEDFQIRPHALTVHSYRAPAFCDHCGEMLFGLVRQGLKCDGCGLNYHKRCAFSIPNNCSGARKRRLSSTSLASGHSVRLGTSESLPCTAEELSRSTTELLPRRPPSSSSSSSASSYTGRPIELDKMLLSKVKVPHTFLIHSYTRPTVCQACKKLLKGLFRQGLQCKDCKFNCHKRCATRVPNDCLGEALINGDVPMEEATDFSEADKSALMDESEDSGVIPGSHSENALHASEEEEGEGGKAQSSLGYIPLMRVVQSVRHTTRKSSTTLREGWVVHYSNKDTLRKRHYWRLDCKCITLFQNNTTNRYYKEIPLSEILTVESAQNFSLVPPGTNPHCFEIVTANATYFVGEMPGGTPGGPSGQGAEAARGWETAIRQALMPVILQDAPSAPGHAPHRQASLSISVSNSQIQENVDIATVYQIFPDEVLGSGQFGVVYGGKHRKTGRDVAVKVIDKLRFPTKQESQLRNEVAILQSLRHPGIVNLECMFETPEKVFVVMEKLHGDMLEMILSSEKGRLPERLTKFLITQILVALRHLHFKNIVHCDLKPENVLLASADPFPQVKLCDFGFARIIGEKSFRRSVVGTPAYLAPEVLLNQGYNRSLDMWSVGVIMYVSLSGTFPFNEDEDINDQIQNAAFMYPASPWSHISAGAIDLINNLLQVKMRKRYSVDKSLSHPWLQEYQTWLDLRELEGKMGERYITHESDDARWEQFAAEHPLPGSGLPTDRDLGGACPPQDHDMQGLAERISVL
The note with it: PKD2/PRKD2; for remaining activity at 0.5 µM / remaining activity at 0.1 µM: read-out: % Enzyme Activity (relative to DMSO controls); for remaining activity at 0.1 µM: 100 nM.
Text: as §1

For assay [4], the target named is 363 human kinases (including Aurora A/B/C) (Homo sapiens, UniProt Q13233). The note with it: MEKK1; for remaining activity at 0.5 µM / remaining activity at 0.1 µM: read-out: % Enzyme Activity (relative to DMSO controls); for remaining activity at 0.1 µM: 100 nM.
Text: as §1
Assay [5] concerns the target 363 human kinases (including Aurora A/B/C) (Homo sapiens, UniProt Q13627). The note with it: DYRK1/DYRK1A, [ATP] 50 µM; for remaining activity at 0.5 µM / remaining activity at 0.1 µM: read-out: % Enzyme Activity (relative to DMSO controls); for remaining activity at 0.1 µM: 100 nM.
Text: as §1
Assay [6] concerns the target 363 human kinases (including Aurora A/B/C) (Homo sapiens, UniProt P51812). The settings on record: RSK2; for remaining activity at 0.5 µM / remaining activity at 0.1 µM: read-out: % Enzyme Activity (relative to DMSO controls); for remaining activity at 0.1 µM: 100 nM.
Text: as §1
In assay [7] the target is 363 human kinases (including Aurora A/B/C) (Homo sapiens, UniProt Q8IU85). The note with it: CAMK1d, [ATP] 2.5 µM; for remaining activity at 0.5 µM / remaining activity at 0.1 µM: read-out: % Enzyme Activity (relative to DMSO controls); for remaining activity at 0.1 µM: 100 nM.
Text: as §1
In assay [8] the target is 363 human kinases (including Aurora A/B/C) (Homo sapiens, UniProt P22694). The note with it: PKAcb; for remaining activity at 0.5 µM / remaining activity at 0.1 µM: read-out: % Enzyme Activity (relative to DMSO controls); for remaining activity at 0.1 µM: 100 nM.
Text: as §1
For assay [9], the target named is 363 human kinases (including Aurora A/B/C) (Homo sapiens, UniProt Q86UX6). The note with it: STK32C/YANK3; for remaining activity at 0.5 µM / remaining activity at 0.1 µM: read-out: % Enzyme Activity (relative to DMSO controls); for remaining activity at 0.1 µM: 100 nM.
Text: as §1
In assay [10] the target is 363 human kinases (including Aurora A/B/C) (Homo sapiens, UniProt P06241). The settings on record: FYN; for remaining activity at 0.5 µM / remaining activity at 0.1 µM: read-out: % Enzyme Activity (relative to DMSO controls); for remaining activity at 0.1 µM: 100 nM.
Sequence of 363 human kinases (including Aurora A/B/C) (Homo sapiens, UniProt P06241) (P06241 whole entry): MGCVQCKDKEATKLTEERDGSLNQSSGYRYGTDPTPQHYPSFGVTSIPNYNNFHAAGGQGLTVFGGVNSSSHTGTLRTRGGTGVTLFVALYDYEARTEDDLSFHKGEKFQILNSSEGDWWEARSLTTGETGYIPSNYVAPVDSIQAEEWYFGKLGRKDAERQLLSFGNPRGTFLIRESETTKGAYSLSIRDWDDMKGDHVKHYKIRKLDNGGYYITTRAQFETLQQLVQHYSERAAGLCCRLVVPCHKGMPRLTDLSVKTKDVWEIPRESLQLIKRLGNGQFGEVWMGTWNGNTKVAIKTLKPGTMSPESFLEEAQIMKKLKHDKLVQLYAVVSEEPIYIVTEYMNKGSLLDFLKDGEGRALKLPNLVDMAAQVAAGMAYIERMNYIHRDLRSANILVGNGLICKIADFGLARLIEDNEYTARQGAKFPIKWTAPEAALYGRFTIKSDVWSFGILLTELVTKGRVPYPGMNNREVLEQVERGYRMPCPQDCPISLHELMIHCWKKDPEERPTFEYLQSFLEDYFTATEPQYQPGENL
Text: as §1

Sequence of 363 human kinases (including Aurora A/B/C) (Homo sapiens, UniProt P51812) (P51812 whole entry): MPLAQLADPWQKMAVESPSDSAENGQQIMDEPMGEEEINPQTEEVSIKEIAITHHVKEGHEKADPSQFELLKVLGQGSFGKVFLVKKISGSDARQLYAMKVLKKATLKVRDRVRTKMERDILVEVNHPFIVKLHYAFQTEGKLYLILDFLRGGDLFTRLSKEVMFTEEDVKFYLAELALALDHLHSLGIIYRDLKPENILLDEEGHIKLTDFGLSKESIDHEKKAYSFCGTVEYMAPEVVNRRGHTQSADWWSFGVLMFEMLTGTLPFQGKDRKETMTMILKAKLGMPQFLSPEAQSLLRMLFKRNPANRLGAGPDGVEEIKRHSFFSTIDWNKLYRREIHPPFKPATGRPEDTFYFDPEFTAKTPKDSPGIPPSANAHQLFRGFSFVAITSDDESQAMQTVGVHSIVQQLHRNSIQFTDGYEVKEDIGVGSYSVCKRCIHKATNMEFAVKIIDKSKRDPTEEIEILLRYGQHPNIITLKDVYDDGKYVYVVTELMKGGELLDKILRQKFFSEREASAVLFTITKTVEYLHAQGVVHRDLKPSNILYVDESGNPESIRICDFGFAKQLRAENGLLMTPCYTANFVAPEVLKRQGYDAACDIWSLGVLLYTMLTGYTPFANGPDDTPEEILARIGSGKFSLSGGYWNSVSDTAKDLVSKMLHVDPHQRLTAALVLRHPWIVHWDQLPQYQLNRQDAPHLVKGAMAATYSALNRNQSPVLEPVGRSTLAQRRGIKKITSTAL
Sequence of 363 human kinases (including Aurora A/B/C) (Homo sapiens, UniProt Q86UX6) (Q86UX6 whole entry): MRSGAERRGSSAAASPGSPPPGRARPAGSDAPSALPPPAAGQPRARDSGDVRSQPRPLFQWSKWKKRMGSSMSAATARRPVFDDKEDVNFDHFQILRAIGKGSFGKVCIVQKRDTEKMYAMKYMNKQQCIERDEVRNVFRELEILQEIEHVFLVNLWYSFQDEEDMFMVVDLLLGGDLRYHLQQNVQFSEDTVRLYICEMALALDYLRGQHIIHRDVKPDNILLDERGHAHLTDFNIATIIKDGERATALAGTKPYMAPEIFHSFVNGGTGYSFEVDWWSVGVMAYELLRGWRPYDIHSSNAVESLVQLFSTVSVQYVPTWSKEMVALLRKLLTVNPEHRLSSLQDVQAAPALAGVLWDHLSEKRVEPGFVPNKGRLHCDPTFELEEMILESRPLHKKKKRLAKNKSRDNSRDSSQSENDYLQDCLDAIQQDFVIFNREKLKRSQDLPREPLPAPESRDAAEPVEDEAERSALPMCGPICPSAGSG
Sequence of 363 human kinases (including Aurora A/B/C) (Homo sapiens, UniProt Q8IU85) (Q8IU85 whole entry): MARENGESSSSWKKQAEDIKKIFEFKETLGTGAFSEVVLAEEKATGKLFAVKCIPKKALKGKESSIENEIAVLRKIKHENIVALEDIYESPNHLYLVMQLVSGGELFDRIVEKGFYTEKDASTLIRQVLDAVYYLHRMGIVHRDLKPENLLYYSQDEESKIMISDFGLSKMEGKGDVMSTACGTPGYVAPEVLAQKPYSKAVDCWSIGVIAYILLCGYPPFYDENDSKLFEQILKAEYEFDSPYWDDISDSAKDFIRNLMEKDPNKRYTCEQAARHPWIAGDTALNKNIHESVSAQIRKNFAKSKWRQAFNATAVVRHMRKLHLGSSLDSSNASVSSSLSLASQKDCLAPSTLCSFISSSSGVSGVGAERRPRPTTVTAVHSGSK
Sequence of 363 human kinases (including Aurora A/B/C) (Homo sapiens, UniProt Q13233) (Q13233 whole entry): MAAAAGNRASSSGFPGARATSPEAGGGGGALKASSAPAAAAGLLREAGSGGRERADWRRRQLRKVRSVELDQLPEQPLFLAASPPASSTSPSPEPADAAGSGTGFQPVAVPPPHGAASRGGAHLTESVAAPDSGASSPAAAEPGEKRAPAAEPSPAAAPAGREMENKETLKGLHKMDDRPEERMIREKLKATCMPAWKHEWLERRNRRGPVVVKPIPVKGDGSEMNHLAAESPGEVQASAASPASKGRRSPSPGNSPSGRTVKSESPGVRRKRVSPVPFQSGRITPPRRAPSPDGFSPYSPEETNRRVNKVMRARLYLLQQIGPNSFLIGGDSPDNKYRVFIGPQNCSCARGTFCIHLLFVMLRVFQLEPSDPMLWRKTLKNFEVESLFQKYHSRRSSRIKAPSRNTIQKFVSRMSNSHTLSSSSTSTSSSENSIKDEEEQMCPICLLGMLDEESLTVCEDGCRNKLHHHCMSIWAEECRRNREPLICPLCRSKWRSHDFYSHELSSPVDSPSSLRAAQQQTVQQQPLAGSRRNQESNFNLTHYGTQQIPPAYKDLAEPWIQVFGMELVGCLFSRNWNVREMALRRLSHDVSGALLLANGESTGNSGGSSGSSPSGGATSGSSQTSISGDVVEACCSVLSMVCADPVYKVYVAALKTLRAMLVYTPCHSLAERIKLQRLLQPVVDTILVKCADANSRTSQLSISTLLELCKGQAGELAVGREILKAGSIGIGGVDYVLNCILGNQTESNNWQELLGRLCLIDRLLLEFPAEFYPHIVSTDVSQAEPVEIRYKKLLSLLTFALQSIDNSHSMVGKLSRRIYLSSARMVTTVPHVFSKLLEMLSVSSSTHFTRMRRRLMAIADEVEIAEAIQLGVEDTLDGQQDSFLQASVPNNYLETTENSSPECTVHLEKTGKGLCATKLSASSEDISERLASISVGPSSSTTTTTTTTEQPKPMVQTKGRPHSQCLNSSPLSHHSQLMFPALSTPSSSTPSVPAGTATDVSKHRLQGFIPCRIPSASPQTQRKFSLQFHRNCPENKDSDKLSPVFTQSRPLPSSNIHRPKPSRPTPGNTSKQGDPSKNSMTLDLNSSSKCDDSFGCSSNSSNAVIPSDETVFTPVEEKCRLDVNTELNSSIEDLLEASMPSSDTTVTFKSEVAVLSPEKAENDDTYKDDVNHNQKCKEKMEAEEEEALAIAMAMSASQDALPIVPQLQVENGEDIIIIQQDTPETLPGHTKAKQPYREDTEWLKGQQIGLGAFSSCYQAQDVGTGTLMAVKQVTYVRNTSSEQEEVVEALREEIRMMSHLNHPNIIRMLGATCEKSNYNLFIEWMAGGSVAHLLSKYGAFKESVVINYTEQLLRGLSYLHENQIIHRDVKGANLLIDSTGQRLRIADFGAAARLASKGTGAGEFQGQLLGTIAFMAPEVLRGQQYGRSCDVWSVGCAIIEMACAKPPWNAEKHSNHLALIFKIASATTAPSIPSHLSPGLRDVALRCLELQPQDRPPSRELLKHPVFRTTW

As to `O=C(c1cccc(Cl)c1F)N1CCN(Cc2cccc(Nc3nccs3)n2)CC1` [MK-8745], the “% Enzyme Activity (relative to DMSO controls)” value was found to be 41.19% in assay [1] (500 nM); 66.22% in assay [2] (500 nM); 96.92% in assay [3] (500 nM); 100.17% in assay [4] (500 nM); 93.95% in assay [5] (500 nM); 101.95% in assay [6] (500 nM). For the same molecule, the “% Enzyme Activity (relative to DMSO controls)” value in assay [7] (500 nM) stood at 112.12%; in [8] (500 nM), 99.52%; in assay [9] (500 nM), 79.77%; in assay [10] (500 nM) it was 57.68%. Besides, the remaining activity at 0.5 µM was 41.6% in assay [1] (500 nM); 68% in [2] (500 nM); 98.1% in assay [3] (500 nM); 101% in assay [4] (500 nM); 96.7% in [5] (500 nM); 105% in [6] (500 nM). Also, the remaining activity at 0.5 µM in assay [7] (500 nM) is 114%; in assay [8] (500 nM) it was 99.5%; in assay [9] (500 nM), 81.5%; in [10] (500 nM) it was 57.8%.

As to `CCn1cc(-c2ccnc3[nH]c(-c4cccc(CN(C)C)c4)cc23)c(-c2ccc(NC(=O)N(C)C)cc2)n1` [GSK1070916], the remaining activity at 0.1 µM in assay [1] was determined as 81.6%; in assay [2], 85.3%; in [3], 93.3%; in [4], 91.8%; in assay [5], 97.5%; in assay [6] it was 107%. Also, the remaining activity at 0.1 µM turned out to be 111% in assay [7], 98% in [8], 79.9% in assay [9] and 84.3% in [10].

Consider `O=C(O)[C@]1(Cc2cccc(Nc3nccs3)n2)CC[C@@H](Oc2cccc(Cl)c2F)CC1` [MK-5108], for which the remaining activity at 0.1 µM in assay [1] worked out at 78.7%; in [2], 95.4%; in [3] it was 98.5%; in assay [4], 104%; in assay [5], 100%; in assay [6] it was 101%. Also, the remaining activity at 0.1 µM was determined as 94.4% in assay [7], 97.1% in [8], 124% in assay [9] and 43.9% in [10]. For the same molecule, the remaining activity at 0.5 µM in assay [1] (500 nM) stood at 46.1%; in [2] (500 nM) it was 76.7%; in [3] (500 nM), 101%; in assay [4] (500 nM) it was 87%; in assay [5] (500 nM), 89.7%; in assay [6] (500 nM), 99.5%. Further, the remaining activity at 0.5 µM was determined as 114% in [7] (500 nM), 98.5% in [8] (500 nM), 96.6% in assay [9] (500 nM) and 18% in assay [10] (500 nM).
